Read-outs that look alike come from different tables or passages of the source.
Assays:
[1] = system: calcified plaque in the coronary arteries
Description: A coronary computed tomography (CT) calcium scan is a test to assess the build up of plaque (calcification) in the coronary arteries. Because calcium is a component of hard plaque and is a marker of coronary artery disease (CAD) such a scan can be used as a diagnostic tool for CAD. The amount of calcium detected on a CT scan, expressed as a calcium score, reflects the degree and extent of calcium deposits on the walls of coronary arteries. Once calcified plaque begins to accumulate on arterial walls the amount deposited increases logarithmically at a rate of 15% to 30% a year.
The calcium score is an indicator of potential heart risk. […] A higher score is indicative of an increased risk and cardiologists express concern of the possibility of a heart incident at various levels but especially at 400 or above. Some treatments such as the product Crestor®, claim to slow the rate of deposition of plaque.
(§1) The subject then took a 2.5 mL daily dose of a 23.8% (mg/L) solution of phosphoric acid composition comprising 183 mg of phosphorus for a period of twelve months. This represented 26% of the RDA of phosphorous (700 mg) for an adult.
(§2) The risk assessment assumed that the calcified plaque would increase at the usual anticipated rate of approximately 15% to 30% a year. They took a daily dose of 2.5 ml of a 23.8% (mg/L) phosphoric acid in water, (183 mg of phosphorus) for a period of six months. […] A third CT calcium scan was performed approximately three months after increasing the dose. This was eight months and twenty days after the initial dosing with phosphoric acid.
The subject takes Famotadine for acid reflux and continues to smoke “one or two cigars a week.” The subject began taking a daily dose of 3.75 ml of a 23.8% (mg/L) phosphoric acid solution.
They currently take lipid lowering medication. They began taking 3.75 ml of a 23.8% (mg/L) phosphoric acid solution shortly after […] CT Calcium Scan.
Their medications includes: Benicar®, Crestor®, Niaspan®, and Lovaza®. Two and a half months after having the first Calcium Score assessment they began taking a daily dose of 3.75 ml of a 23.8% (mg/L) phosphoric acid solution. […] Note, cadaver studies consistently indicate that smokers are more prone to advanced artery disease.

[2] = system: soft plaque in the arteries; conditions: Example 2 subject; at the time of the third CT calcium scan; no CTA scan before treatment
Description: At the same time the most recent CT calcium scan was done, a Computed Tomography Angiography (CTA) scan was also done with contrast dye to determine the amount of soft plaque in the arteries.

[3] = Example 1 subject; 2.5 mL daily (183 mg phosphorus)
[4] = Method: as §2
calcified plaque = conditions: Example 1 subject; two years after angiogram that showed extensive calcified plaque
Method: (§3) The cardiac interventionist prescribed the same kind of drug therapy as above. A stress test was conducted at this time to provide a baseline for comparing with possible future stress tests.
as §1

coronary condition = conditions: Example 1 subject; after twelve months of 2.5 mL daily (183 mg phosphorus); baseline stress test positive
Method: as §3, §1

## O=P(O)(O)O [phosphoric acid]
[1]; All, sample size 5
  % Whose Ca Score Increased: 20%
[1]; Example 1 subject (man, stent), 2.5 mL daily of 23.8% (mg/L) solution, 183 mg phosphorus, after one year, no base score
  calcium score: 29
[1]; Example 1 subject, after one year of 2.5 mL daily (183 mg phosphorus)
  probability of a heart attack in the next 10 years: 10%
[1]; Example 2 subject, initial score 181, 2.5 ml daily (183 mg phosphorus), second CT scan at six months
  calcium score: 181
[1]; Example 2 subject, initial score 181, third scan eight months and twenty days after initial dosing, about three months after increase to 3.75 ml (274 mg phosphorus)
  calcium score: 179
[1]; Example 3 subject, initial score 193, 3.75 ml daily of 23.8% (mg/L) solution, approximately six months
  calcium score: 122
[1]; Example 3 subject, 193 to 122, approximately six months of 3.75 ml daily
  reduction of calcium score: 37%
[1]; Example 4 subject, initial score 85, 3.75 ml of 23.8% (mg/L) solution, eight months
  calcium score: 83
[1]; Example 4 subject, 85 to 83, eight months
  calcium score lower than the initial score: 2 points
[1]; Example 5 subject
  annual rate of increase of calcium score: 13.4%
[1]; Example 5 subject (heavy smoker), initial score 117, 3.75 ml daily of 23.8% (mg/L) solution, eight months after start
  calcium score: 130
[1]; Example 5 subject, 117 to 130
  increase of calcium score: 11%
[1]; Non-Smokers, sample size 4
  % Whose Ca Score Increased: 0%
[1]; Smokers, sample size 1
  % Whose Ca Score Increased: 100%
[2]
  soft plaque score: 0
[3]
  bone density on bone scan: normal bone density
[4]; Example 1 subject, 2.5 mL daily (183 mg phosphorus)
  side-effects related to the phosphoric acid composition: no side-effects
[4]; Example 2 subject, daily dose 3.75 ml (274 mg phosphorus)
  side effects at the higher dose level: no side effects
Calcified plaque
  calcified plaque on CT Angiogram: no calcified plaque except in the area of the stent
Coronary condition
  second stress echo test result: negative

— patent US20140170236A1, “USE OF PHOSPHORIC ACID” (priority 2010, published 2014)
